The source of these data is patent publication US5296597A, “Amide derivatives of Partricin A & Partricin B” (SPA Societa' Prodotti Antibiotici S.P.A., priority 1989, dated 1994).

In data set [1] the test system is rat erythrocytes. The data set is described as follows: hemolytic power on rat erythrocytes. The note with it: for hemolytic activity, times less than unreacted partricins: relative to unreacted partricins; for EC (concentration that causes hemoglobin liberation of 50% of the total amount): rat erythrocytes, 2% suspension in BSA Ringer, 1 hour at 36, average of 2-5 experiments. It counts as cell-based. How it is done:
A further important evaluation parameter was the helomytic power: rat erytrocytes were suspended at a 2% concentration in Ringer solution containing 0.2% of bovine serum albumin, fraction V (BSA) and incubated for 1 hour at 36° C. in the presence of various amounts of the amides being investigated.

Data set [2] deals with Candida albicans. The data set is described as follows: antimycotic activity, minimum inhibitory concentration (MIC) on Candida albicans, liquid and solid medium. The note with it: candida albicans n. 37, 24 hours, average of 2-5 experiments. The format is cell-based. How it is done: (b) Sabouraud fluid medium, 24 hours at
(c) Sabouraud fluid medium + agar, 24 hours at […]

Data set [3] relates to Trichomonas vaginalis. Kind of data set: antiprotozoal activity, MIC on Trichomonas vaginalis. It counts as cell-based. To be noted: T. vaginalis n. 6; CPLM culture medium, 72 hours; average of 2-5 experiments.
Data set [4] deals with Saccharomyces cerevisiae. Kind of data set: growth inhibition of Saccharomyces cerevisiae culture (turbidimetric). It counts as cell-based. To be noted: S. cerevisiae n. 167; PYG culture medium, 6 hours at 36; average of 2-5 experiments.
The conditions of data set [5]: background statement, in words; cited from earlier work.
The conditions of data set [6]: background statement, in words; cited from earlier work. The source holds these as a separate data set.
In data set [7] the test system is yeasts, such as Candida albicans. To be noted: background statement, in words; cited from earlier work.
A short description of data set [8]: water solubility and pH. The format is physicochemical.
[9] abbreviates: Sabouraud fluid medium + agar (solid).

In brackets after ≈: the same amount, converted by molar mass. Read-outs that look alike come from different tables or passages of the source.

With 2-dimethylaminoethyl amide, the “hemolytic activity, times less than unreacted partricins” value (“hemolytic activity” for short) in data set [1] is recorded as 25-80 times less.

With 3-dimethylaminopropyl amide, the “hemolytic activity” value in data set [1] is recorded as 25-80 times less.

As usually defined, the MIC is the least concentration at which growth counts as inhibited. In general, IC50 refers to the concentration that inhibits the measured activity by half. The low end stands for greater potency, the high end for weaker potency. On to `CC1/C=C/C=C/C=C/C=C/C=C/C=C/C=C/C(O[C@H]2O[C@@H](C)[C@H](O)[C@@H](N)[C@H]2O)CC2OC(O)(CC(O)CC(O)CC(O)CC(O)CC(=O)CC(O)CC(=O)OC1C(C)CCC(O)CC(=O)c1ccc(N)cc1)CC(O)C2C(=O)O` (stereo partly drawn) [Partricin B (P.B), reference compound], for which the results for the MIC in data set [2] (setting [9]), in data set [2] (Sabouraud fluid medium) and in data set [3] were 40 ng/mL, 40 ng/mL (≈ 0.0359 µM) and 250 ng/mL (≈ 0.225 µM), respectively. The concentration for half-maximal inhibition (IC50) in data set [4] came to 5 ng/mL (≈ 0.00449 µM).

`COC(=O)C1C(O)CC2(O)CC(O)CC(O)C(O)CCC(O)CC(O)CC(=O)OC(C)C(C)C(O)C(C)C=CC=CC=CC=CC=CC=CC=CC(OC3OC(C)C(O)C(N)C3O)CC1O2` (stereo not drawn) [amphotericin B methyl ester]: the toxicity result in data set [5] is recorded as “severe neurotoxic effects”.

Take “Partricin 3-dimethylaminopropyl amide [P. 3-dimethyl-aminopropyl amide]”: the minimum inhibitory concentration (MIC) in data set [2] (setting [9]) was determined as 16 ng/mL; in data set [2] (Sabouraud fluid medium), 10 ng/mL; in data set [3], 500 ng/mL. The same molecule gave an IC50 in data set [4] of 1 ng/mL. The “EC (concentration that causes hemoglobin liberation of 50% of the total amount)” value in data set [1] worked out at 17 µg/mL.

For the molecule “Partricin A 3-dimethylaminopropyl amide [P.A 3-dimethyl-aminopropyl amide]”, the MIC in data set [2] (setting [9]) was determined as 8 ng/mL; in data set [2] (Sabouraud fluid medium) it was 3 ng/mL; in data set [3], 500 ng/mL. In data set [4], the IC50 was 0.5 ng/mL. Moreover, the “EC (concentration that causes hemoglobin liberation of 50% of the total amount)” value in data set [1] turned out to be 20 µg/mL.

As to “Partricin A N'-methyl-piperazide [P.A N'-methyl-piperazide]”, the minimum inhibitory concentration (MIC) in data set [2] (setting [9]) stood at 4 ng/mL; in data set [2] (Sabouraud fluid medium) it was 1 ng/mL; in data set [3], 500 ng/mL. This molecule also returned an IC50 in data set [4] of 0.4 ng/mL.

As to “Partricin A allyl amide [P.A allyl amide]”, the results for the MIC in data set [2] (setting [9]), in data set [2] (Sabouraud fluid medium) and in data set [3] were 10 ng/mL, 6 ng/mL and 250 ng/mL, respectively. The same molecule gave an IC50 in data set [4] of 0.8 ng/mL.

Consider “Partricin A ethyl amide [P.A ethyl amide]”, for which the MIC in data set [2] (setting [9]) turned out to be 10 ng/mL; in data set [2] (Sabouraud fluid medium) it was 9 ng/mL; in data set [3], 500 ng/mL. In data set [4], the IC50 is 1 ng/mL.

In the case of “Partricin A n-pentyl amide [P.A n-penthyl amide]”, the figures for the MIC in data set [2] (setting [9]), in data set [2] (Sabouraud fluid medium) and in data set [3] were 80 ng/mL, 20 ng/mL and 2000 ng/mL, respectively. Further, in data set [4], the half-maximal inhibitory concentration (IC50) is 3 ng/mL.

Take “Partricin A n-propyl amide [P.A n-propyl amide]”: the figures for the minimal inhibitory concentration (MIC) in data set [2] (setting [9]), in data set [2] (Sabouraud fluid medium) and in data set [3] were 16 ng/mL, 8 ng/mL and 500 ng/mL, respectively. This molecule registered a half-maximal inhibitory concentration (IC50) in data set [4] of 1 ng/mL.

Regarding “Partricin B 2-dimethylaminoethyl amide [P.B 2-dimethyl-aminoethyl-amide]”, the minimum inhibitory concentration (MIC) in data set [2] (setting [9]) came out at 10 ng/mL; in data set [2] (Sabouraud fluid medium), 3 ng/mL; in data set [3], 500 ng/mL. The same molecule had an IC50 in data set [4] of 1 ng/mL.

As for “Partricin B methyl amide [P.B methyl amide]”, the MIC in data set [2] (setting [9]) amounted to 8 ng/mL; in data set [2] (Sabouraud fluid medium), 7 ng/mL; in data set [3] it was 250 ng/mL. Further, the IC50 in data set [4] came to 1 ng/mL.

With Partricin methyl amide [P. methy amide], the MIC came out at 7 ng/mL in data set [2] (setting [9]), 5 ng/mL in data set [2] (Sabouraud fluid medium) and 250 ng/mL in data set [3]. For the same molecule, the IC50 in data set [4] was 1 ng/mL. In addition, in data set [1], the “EC (concentration that causes hemoglobin liberation of 50% of the total amount)” value was determined as 7.5 µg/mL.

As for “Partricin n-dodecyl amide [P. n-dodecyl amide]”, the figures for the MIC in data set [2] (setting [9]), in data set [2] (Sabouraud fluid medium) and in data set [3] were 800 ng/mL, 450 ng/mL and > 10000 ng/mL, respectively. In data set [4], the IC50 was determined as 50 ng/mL. Besides, in data set [1], the “EC (concentration that causes hemoglobin liberation of 50% of the total amount)” value was > 32 µg/mL.

As for mepartricin, in data set [6], the water solubility entry is on record as “insufficient water solubility”. Further, in data set [5], the action selectivity result is on record as “greater action selectivity” and the toxicity result was “reduced toxicity, but still exhibits marked toxic effects”. Moreover, the antimycotic activity result in data set [7] is on record as “increased antimycotic activity”.

On to methyl amide, for which the “hemolytic activity” value in data set [1] is on record as 25-80 times less.

Turning to “partricin A 2-dimethylaminoethyl amide diaspartate”, the water solubility result in data set [8] (in words) was “water-soluble”. For the same molecule, in data set [8] (slightly acidic reaction), the “pH (reaction of the salt)” value is given as ~5.

Take “partricin A 2-dimethylaminoethylamide [P.A 2-dimethyl-aminoethyl amide]”: the MIC in data set [2] (setting [9]) was found to be 8 ng/mL; in data set [2] (Sabouraud fluid medium), 2 ng/mL; in data set [3], 500 ng/mL. The molecule further gave an IC50 in data set [4] of 0.4 ng/mL. Moreover, the “EC (concentration that causes hemoglobin liberation of 50% of the total amount)” value in data set [1] amounted to 25 µg/mL.

Regarding “partricin A methyl amide [P.A methyl amide]”, the minimal inhibitory concentration (MIC) came out at 8 ng/mL in data set [2] (setting [9]), 5 ng/mL in data set [2] (Sabouraud fluid medium) and 250 ng/mL in data set [3]. For the same molecule, the 50% inhibitory concentration (IC50) in data set [4] came to 0.7 ng/mL. Also, the “EC (concentration that causes hemoglobin liberation of 50% of the total amount)” value in data set [1] came to 8 µg/mL.
